Values of other authors in patent publication US11918653B2, “Triglyceride otic formulations and uses thereof” (DOMPÉ FARMACEUTICI S.P.A., priority 2017, dated 2024).
Values belong to the molecule of their own block, whether it stands above or below them.

Experiments:
[1] = after topical application
[2] = biological target: constitutively activated D136A mutant VP2 receptor (Homo sapiens, UniProt P30518, D136A)
rat arthritis model = details: 30 mg/kg
[3] = tested on: Meniere's disease symptoms; details: infusion into the scala tympani
[4] = tested on: TNF-α production in the LPS-induced MonoMac-6 cells; details: read-out: IC50 for inhibiting TNF-α production
[5] = in vivo
tinnitus = details: administered by IV
[6] = tested on: TNF-α production in the LPS-induced human PBMC cells; details: read-out: IC50 for inhibiting TNF-α production
lymphotoxin (TNF-β) = biological target: T1, lymphotoxin (TNF-β) (Homo sapiens, UniProt P01374)
T1 sequence (P01374 35-205): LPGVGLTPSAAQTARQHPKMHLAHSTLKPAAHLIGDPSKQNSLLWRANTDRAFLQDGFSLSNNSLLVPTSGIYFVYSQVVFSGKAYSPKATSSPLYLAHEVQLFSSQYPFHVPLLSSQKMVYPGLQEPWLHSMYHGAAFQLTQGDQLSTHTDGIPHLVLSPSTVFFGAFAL

[7] = tested on: mouse collagen-induced arthritis model; details: 30 mg/kg dose
TNF-α = details: LPS-challenged mice

bioavailability [1]: less than 0.5%
Molecule: C=CC[C@@H]1/C=C(\C)C[C@H](C)C[C@H](OC)[C@H]2O[C@@](O)(C(=O)C(=O)N3CCCC[C@H]3C(=O)O[C@H](/C(C)=C/[C@@H]3CC[C@@H](O)[C@H](OC)C3)[C@H](C)[C@@H](O)CC1=O)[C@H](C)C[C@@H]2OC (relative stereo) [tacrolimus, [3S-[3R*[E(1S*,3S*,4S*)], 4S*,5R*,8S*,9E,12R*,14R*,15S*,16R*,18S*,19S*,26aR*]]-5,6,8,11,12,13,14,15,16,17,18,19,24,25,26,26a-hexadecahydro-5,19-dihydroxy-3-[2-(4-hydroxy-3-methoxycyclohexyl)-1-methylethenyl]-14,16-dimethoxy-4,10,12,18-tetramethyl-8-(2-propenyl)-15,19-epoxy-3H-pyrido[2,1-39c][1,4]oxaazacyclotricosine-1,7,20,21(4H,23H)-tetrone monohydrate]

Molecule: CCOc1ccc2c(c1)C1(CCC(OCCN3CCOCC3)CC1)C(=O)N2S(=O)(=O)c1ccc(C(=O)NC(C)(C)C)cc1OC.O=C(O)/C=C/C(=O)O (centres unmarked) [SR-1211463, 1-(4-(N-tert-butylcarbamoyl)-2-methoxybenzenesulfonyl)-5-ethoxy-3-spiro-(4-(2-morpholinoethoxy)cyclohexane)indol-2-one fumarate]
behaviour at D136A mutant VP2 receptor [2]: inverse agonist

Molecule: etanercept
patients experiencing injection site reactions (systemically treated): over one-third of patients

Molecule: COc1cccc2nc(-c3cccs3)nc(NN3C(=O)C=C(C)C3=O)c12 [SPC-839]
paw edema (rat arthritis model): reduces paw edema

behaviour at D136A mutant VP2 receptor [2]: inverse agonist
Molecule: Cc1ccccc1C(=O)Nc1ccc(C(=O)N2CCCC(N(C)C)c3ccccc32)cc1.Cl (racemic) [OPC-31260, (±)-5-dimethylamino-1-(4-[2-methylbenzoylamino]benzoyl)-2,3,4,5-tetrahydro-1H-benzazepin hydrochloride]
Meniere's disease symptoms [3]: marked reduction of Meniere's disease symptoms

IC50 [4]: 0.034 µM
Molecule: CC(C)C[C@@H](C(=O)N[C@@H](CCCN/C(N)=N/[N+](=O)[O-])C(=O)Nc1nccs1)[C@H](C(C)C)N(O)C=O [Nitroarginine analog A]
oral activity [5]: lacks oral activity

Molecule: CCN(CC)CC(=O)Nc1c(C)cccc1C [Lidocaine]
sufferers in whom noise associated with tinnitus is reduced or eliminated (tinnitus): 60-80%

Molecule: CC[C@H](C)[C@H](NC(=O)[C@H](CC(C)C)[C@H](C(C)C)N(O)C=O)C(=O)Nc1ccccn1 [GW3333]
IC50 [6]: 0.97 µM

Molecule: Adalimumab
patients developing injection site reactions (erythema and/or itching, hemorrhage, pain and/or swelling) (systemic administration): 20%
binding or inactivation of lymphotoxin (TNF-β) (lymphotoxin (TNF-β)): does not bind or inactivate

Molecule: Cc1ccc2nc(NCCN)c3ncc(C)n3c2c1 [BMS-345541]
severity of disease [7]: significantly reduced the severity of disease

Molecule: O=C(Nc1cc(Cl)cc2c1[nH]c1cnccc12)c1cccnc1 [PS-1145]
production of TNF-α (TNF-α): reduces the production of TNF-α
